Test results: patent US20200407398A1, “Short Proline-Rich Lipopeptide Potentiates Minocycline and Rifampicin Against Multidrug-and Extensively Drug-Resistant Pseudomonas Aeruginosa” (priority 2018, published 2020)
Read-outs that look alike come from different tables or passages of the source. Peptide text beside a SMILES is read from it. * marks the point of attachment. Acetyl(1-adamantyl) = O=C(CC12CC3CC(CC(C3)C1)C2)*; Palmitoyl = CCCCCCCCCCCCCCCC(=O)*; Lauroyl = CCCCCCCCCCCC(=O)*

Experiments:
pig erythrocytes = format: cell-based
Method: Since PRAMPs are able to kill bacteria through membrane lysis, it is imperative to evaluate whether these synthesized SPRLPs also lyse eukaryotic membranes. The ability to lyse porcine red blood cells was assessed and the minimum concentration to result in 5% erythrocyte hemolysis (MHC) was reported (Tables 2 & 3). […] This greatly limits their therapeutic potential. […] However, all other SPRLPs were non-hemolytic (MHC>512 μg/mL).
The ability of SPRLPs to lyse eukaryotic red blood cells were quantified by the amount of hemoglobin released upon incubation with pig erythrocytes, following published protocols (37, 39). Fresh pig blood drawn from pig antecubital vein was centrifuged at 1000×g for 5 minutes at 4° C., washed with PBS three times and re-suspended in the same buffer, consecutively. Then, agents of interest were 2-fold serially diluted in PBS on 96-well plate and mixed with equal volumes of erythrocyte solution. Post 1-hour incubation at 37° C., intact cells were pelleted by centrifugation at 1000×g for 5 minutes at 4° C. The supernatant was then transferred to a new 96-well plate. The hemoglobin released was measured via EMax Plus microplate reader (Molecular Devices, USA) at 570 nm wavelength. Erythrocytes in PBS with or without 0.1% Triton X-100 was used as negative or positive control, respectively.

E. faecalis ATCC 29212 = format: cell-based
Method: (§1) The synthesized SPRLPs were evaluated for their antibacterial potency against a panel of Gram-positive and Gram-negative bacteria (Tables 2 & 3). Some of the included pathogens were collected from patients visiting or admitted to participating Canadian hospitals through the CAN-ICU (27) and CANWARD (28) national surveillance studies. Antibacterial activity was assessed using minimum inhibitory concentration (MIC) against various clinical pathogens.
(§2) Isolates used in this study were either obtained from the American Type Culture Collection (ATCC), the Canadian National Intensive Care Unit (CAN-ICU) surveillance study (27) or the Canadian Ward Surveillance (CANWARD) study (28). Clinical isolates belonging to the CAN-ICU and CANWARD studies were recovered from patients suffering a presumed infectious disease entering or admitted in a participating medical center across Canada during the time of study. MDR P. aeruginosa strains in this study refer to those that are resistant to aminoglycosides, fluoroquinolones, cephalosporins, and carbapenems while XDR strains are those that are resistant to aminoglycosides, fluoroquinolones, cephalosporins, carbapenems, aztreonam and penicillin+β-lactamase inhibitor combination (39, 40).
(§3) Microbroth dilution susceptibility test following the Clinical and Laboratory Standards Institute (CLSI) guidelines (32) was performed to assess the in vitro antibacterial activity of SPRLPs. Overnight grown bacterial cultures were diluted in saline to achieve a 0.5 McFarland turbidity, followed by 1:50 dilution in Mueller-Hinton broth (MHB) for inoculation to a final concentration of 5×10^5 colony forming units/mL. The assay was done on a 96-well plate to which the agents of interest were 2-fold serially diluted in MHB and incubated with equal volumes of inoculum at 37° C. for 18 hours. MIC was determined as the lowest concentration to inhibit visible bacterial growth in form of turbidity, which was confirmed using EMax Plus microplate reader (Molecular Devices, USA) at a wavelength of 590 nm. The well containing MHB broth with or without bacterial cells was used as positive or negative control, respectively.

[1] = test system: A. baumannii CAN-ICU 63169; format: cell-based
Method: as §1, §2, §3

S. aureus ATCC 29213 = format: cell-based
Method: as §1, §2, §3

P. aeruginosa ATCC 27853 = format: cell-based
Method: as §1, §2, §3

[2] = test system: P. aeruginosa CAN-ICU 62308 (gentamicin-resistant); format: cell-based
Method: as §1, §2, §3

[3] = test system: methicillin-resistant S. epidermidis CAN-ICU 61589 (ceftazidime-resistant); format: cell-based; conditions: methicillin-resistant CAN-ICU 61589 (ceftazidime-resistant)
Method: as §1, §2, §3

K. pneumoniae ATCC 13883 = format: cell-based
Method: as §1, §2, §3

[4] = test system: E. coli CAN-ICU 63074 (amikacin-intermediate resistant); format: cell-based
Method: as §1, §2, §3

[5] = test system: methicillin-resistant S. aureus ATCC 33592; format: cell-based
Method: as §1, §2, §3

E. faecium ATCC 27270 = format: cell-based
Method: as §1, §2, §3

[6] = test system: methicillin-susceptible Staphylococcus epidermidis CANWARD-2008 81388; format: cell-based; conditions: methicillin-susceptible CANWARD-2008 81388
Method: as §1, §2, §3

[7] = test system: E. coli CAN-ICU 61714 (gentamicin-resistant); format: cell-based
Method: as §1, §2, §3

[8] = test system: P. aeruginosa CANWARD-2011 96846 (gentamicin-, tobramycin-resistant); format: cell-based
Method: as §1, §2, §3

E. coli ATCC 25922 = format: cell-based
Method: as §1, §2, §3

[9] = test system: P. aeruginosa wild-type PAO1; format: cell-based
Method: as §1, §2, §3

[10] = test system: S. maltophilia CAN-ICU 62584; format: cell-based
Method: as §1, §2, §3

[11] = test system: E. coli CANWARD-2011 97615 (gentamicin-, tobramycin-, ciprofloxacin-resistant) aac(3′)iia; format: cell-based
Method: as §1, §2, §3

[12] = test system: wild-type and MDR/XDR P. aeruginosa clinical isolates; conditions: checkerboard assay; P. aeruginosa
Method: We evaluated the activity of SPRLPs in combination with fifteen clinically-used antibiotics against P. aeruginosa. Antibiotics tested included fluoroquinolones (moxifloxacin, ciprofloxacin and levofloxacin), aminoglycosides (gentamicin, tobramycin and amikacin), cephalosporins (ceftazidime and cefotaxime), carbapenems (meropenem and doripenem), aztreonam, rifampicin, minocycline, colistin and fosfomycin. The SPRLPs were screened initially at a fixed concentration of 8 μg/mL (5 μM) in combination with antibiotics against wild-type P. aeruginosa PAO1. We assessed potentiation by at least a four-fold absolute MIC reduction of the antibiotic, after which synergism was further validated by a conventional checkerboard assay. A fractional inhibitory concentration (FIC) index of ≤0.5, 0.5<x≤4 or >4 was interpreted as synergistic, indifferent or antagonistic interaction, respectively (31). FIC index was obtained by adding the FIC values of the antibiotic and the SPRLP adjuvant. FIC of antibiotics was calculated by dividing the MIC of the antibiotic in the presence of the adjuvant by the MIC of the antibiotic alone. Similarly, the FIC of adjuvant was calculated via dividing the MIC of the adjuvant in the presence of the antibiotic by the MIC of the adjuvant alone.
as §2, §3
The assay was performed on a 96-well plate, to which the agents of interest was 2-fold serially diluted in working MHB. Prior to serial dilution, SPRLP was added to the working MHB media so that a fixed final concentration of 8 μg/mL (5 μM) SPRLP per well was achieved. To ensure that the assay was working, the MIC determination test of the studied antibiotic (without SPRLP) was included on the same plate. Similar MIC results between the assay comparator and an independent MIC determination test (on a different plate) ensured validity of the synergy test. Overnight grown bacterial cultures were diluted in saline to 0.5 McFarland turbidity, followed by 1:50 dilution in MHB (without SPRLP) and inoculation into each well to a final concentration of approximately 5×10^5 colony forming units/mL. Wells containing only MHB (without SPRLP) with or without bacterial cells were used as positive or negative control, respectively.

Row | SMILES | MHC (minimum concentration that resulted in 5% red blood cell hemolysis) (pig erythrocytes; red cells of porcine) [µg/mL] | MIC (E. faecalis ATCC 29212) [µg/mL] | MIC [1] [µg/mL] | MIC (S. aureus ATCC 29213) [µg/mL] | MIC (P. aeruginosa ATCC 27853) [µg/mL] | MIC [2] [µg/mL] | MIC [3] [µg/mL] | MIC (K. pneumoniae ATCC 13883) [µg/mL] | MIC [4] [µg/mL] | MIC [5] [µg/mL] | MIC (E. faecium ATCC 27270) [µg/mL] | MIC [6] [µg/mL] | MIC [7] [µg/mL] | MIC [8] [µg/mL] | MIC (E. coli ATCC 25922) [µg/mL] | MIC [9] [µg/mL] | MIC [10] [µg/mL] | MIC [11] [µg/mL] | MHC (minimum concentration that resulted in 5% red blood cell hemolysis) (pig erythrocytes) [µg/mL] | other results
1 | N=C(N)NCCC[C@H](NC(=O)[C@@H]1CCCN1C(=O)[C@H](CCCNC(=N)N)NC(=O)[C@@H]1CCCN1C(=O)[C@H](CCCNC(=N)N)NC(=O)[C@@H]1CCCN1C(=O)CC12CC3CC(CC(C3)C1)C2)C(=O)N1CCC[C@H]1C(N)=O [Ad-PRP, Adamantyl-CH2CO-PRPRPRP-NH2] ({Acetyl(1-adamantyl)}-PRPRPRP-NH2) | >512 | >128 | >128 | >128 | >128 | >128 | >128 | >128 | >128 | >128 | >128 | >128 | >128 | >128 | >128 | >512 | >128 | >128 |  | interaction with minocycline (in words) [12]: indifferent interaction; interaction with rifampicin (in words) [12]: indifferent interaction
2 | CCCCCCCCCCCC(=O)N1CCC[C@H]1C(=O)N[C@@H](CCCNC(=N)N)C(=O)N1CCC[C@H]1C(=O)NCC(=O)N1CCC[C@H]1C(=O)N[C@@H](CCCNC(=N)N)C(=O)N1CCC[C@H]1C(N)=O [Compound C12-PGP, CH3(CH2)10CO-PRPGPRP-NH2] (Lauroyl-PRPGPRP-NH2) | >512 | >128 | >128 | >128 | >128 | >128 | >128 | >128 | >128 | >128 | >128 | 128 | >128 | >128 | >128 | >512 | >128 | >128 |  | 
3 | CCCCCCCCCCCC(=O)N1CCC[C@H]1C(=O)N[C@@H](CCCNC(=N)N)C(=O)N1CCC[C@H]1C(=O)N[C@@H](CC(C)C)C(=O)N1CCC[C@H]1C(=O)N[C@@H](CCCNC(=N)N)C(=O)N1CCC[C@H]1C(N)=O [Compound C12-PLP, CH3(CH2)10CO-PRPLPRP-NH2] (Lauroyl-PRPLPRP-NH2) | >512 | 128 | >128 | 128 | >128 | >128 | 64 | >128 | >128 | 128 | 128 | 64 | >128 | >128 | >128 | 512 | >128 | >128 |  | 
4 | CCCCCCCCCCCC(=O)N1CCC[C@H]1C(=O)N[C@@H](CCCNC(=N)N)C(=O)N1CCC[C@H]1C(=O)N[C@@H](Cc1c[nH]c2ccccc12)C(=O)N1CCC[C@H]1C(=O)N[C@@H](CCCNC(=N)N)C(=O)N1CCC[C@H]1C(N)=O [Compound C12-PWP, CH3(CH2)10CO-PRPWPRP-NH2] (Lauroyl-PRPWPRP-NH2) |  | 32 | 128 | 32 | >128 | >128 | 16 | >128 | 128 | 32 | 32 | 16 | 128 | >128 | 128 | 64 | >128 | 128 | 64 | 
5 | CCCCCCCCCCCCCCCC(=O)N1CCC[C@H]1C(=O)N[C@@H](CCCNC(=N)N)C(=O)N1CCC[C@H]1C(=O)N[C@@H](CC(C)C)C(=O)N1CCC[C@H]1C(=O)N[C@@H](CCCNC(=N)N)C(=O)N1CCC[C@H]1C(N)=O [Compound C16-PLP, CH3(CH2)14CO-PRPLPRP-NH2] (Palmitoyl-PRPLPRP-NH2) |  | 64 | 128 | 64 | >128 | >128 | 64 | 128 | 64 | 64 | 64 | 32 | 64 | >128 | 128 | 32 | >128 | 128 | 16 | 
